{"source": "patent US9925166B2", "about": "“Methods of treating an overweight or obese subject” (Zafgen, Inc., priority 2008, dated 2018)", "key": {"leptin": {"tested_on": "leptin", "assay": "Plasma marker leptin in diet-induced obese mice (Example 10)", "assay_type": "in vivo, C57BL/6 mice", "settings": "1 mg/kg/day oral gavage, end of study vs prior, FIG. 15", "procedure": "Mice were divided into four groups, a diet-induced obese group administered fumagillin at 1 mg/kg/day (oral gavage as a solution in 0.25% DMSO), a Pair-fed group, a caloric restriction group, and a diet-induced obese group. For the diet-induced obese groups, C57BL/6 mice were maintained prior to and during the study on a diet containing 42% fat on a kilocalorie basis. Plasma markers were measured prior to and at the end of the study."}, "[1]": {"assay": "Plasma concentration after intraduodenal administration (Example 8)", "assay_type": "in vivo, Sprague-Dawley rats", "settings": "30 mg/kg intraduodenal; for ZGN-201 Conc. in Rat Plasma, individual animals: listed as ZGN-201", "procedure": "A study was undertaken to investigate absorption of fumagillin from the small intestine. Five male Sprague-Dawley rats were fasted, and were then catheterized into the duodenum, 1.5 centimeters below the stomach. The stomachs of these rats were tied off so administration would bypass the stomach of each rat. Rats were then infused with 30 mg/kg of fumagillin and an equal volume of Trypan blue (Invitrogen). To determine absorption of fumagillin into the small intestine, blood was collected from the jugular vein of each rat at time points of 0 min., 5 min. (graphically illustrated as 0.083), 15 min. (graphically illustrated as 0.25), 30 min. (graphically illustrated as 0.5), 2 hrs, and 8 hrs."}, "[2]": {"settings": "humans, 30 mg/day to 60 mg/day; Molina et al., Seneca; cited from earlier work"}, "diet-induced obese mice [3]": {"tested_on": "diet-induced obese mice", "assay": "Very low dose oral and subcutaneous weight loss study in diet-induced obese mice (Examples 3 and 4)", "assay_type": "in vivo, C57BL/6NTac mice", "excerpt": "(§1) Mice were divided into two groups, a diet-induced obese group and a lean group. For the diet-induced obese group, fifteen week-old C57BL/6NTac mice, maintained prior to and during the study on a diet containing 60% fat on a kilocalorie basis, were further separated into six groups, eight animals per group. Average body weight of these diet-induced obese mice was 38 g at the start of the study. For the lean group, fifteen week-old C57BLI6NTac mice, maintained on a diet containing 4.3% by weight fat prior to and during the study, were further separated into two groups, eight animals per group. Average body weight of these lean mice was 28 g at the start of the study.\n(§2) Fumagillin was administered to three of the diet-induced obese mice groups by oral gavage as a solution in 10% DMSO, at doses of 0.1 mg/kg/day, 0.3 mg/kg/day, and 1 mg/kg/day respectively. A fourth diet-induced obese mice group received the 10% DMSO vehicle only by oral gavage. A group of lean mice was administered fumagillin by oral gavage as a solution in 10% DMSO at a dose of 1 mg/kg/day. Treatments were administered daily for 11 days.\nas §1, with “A study was undertaken to analyze whether oral administration compared to subcutaneous administration of fumagillin affected weight loss in diet-induced obese mice. Mice” for “Mice”\nFumagillin was administered to three of the diet-induced obese groups by oral gavage as a solution in 10% DMSO, at doses of 0.1 mg/kg/day, 0.3 mg/kg/day, and 1 mg/kg/day respectively. A fourth diet-induced obese group received the 10% DMSO vehicle-only by oral gavage. A fifth diet-induced obese group received fumagillin at a 1 mg/kg/day dose by subcutaneous injection of a solution in 10% DMSO. A sixth diet-induced obese group received the 10% DMSO vehicle only by subcutaneous injection. A group of lean mice was administered fumagillin by oral gavage as a solution in 10% DMSO at a dose of 1 mg/kg/day.\nAnother group of lean mice was administered fumagillin by subcutaneous injection of a solution in 10% DMSO at a dose of 1 mg/kg/day. Treatments were administered daily for 14 days."}, "lean mice": {"tested_on": "lean mice", "assay": "Oral and subcutaneous fumagillin in lean mice (Examples 3 and 4)", "assay_type": "in vivo, C57BLI6NTac mice", "excerpt": "as §1, §2\nA study was undertaken to analyze whether oral administration compared to subcutaneous administration of fumagillin affected weight loss in diet-induced obese mice. Mice were divided into two groups, a diet-induced obese group and a lean group. […]"}, "diet-induced obese mice [4]": {"tested_on": "diet-induced obese mice", "assay": "Percent fat change and lean mass change by NMR in diet-induced obese mice, 28 days (Example 6)", "assay_type": "in vivo, C57BL6J mice", "procedure": "Mice were first divided into three groups, a control group, a diet-induced obese group, and a lean group. For the diet-induced obese group, C57BL6J mice maintained prior to and during the study on a diet containing 40% fat on a kilocalorie basis were further divided into two groups. For the lean group, C57BL6J mice were maintained on a diet containing 4% by weight fat prior to and during the study. Each of the groups was subsequently divided as described below.\nThe lean group was administered 1% DMSO vehicle for 28 days. Percent fat change and percent lean mass change from baseline were determined by NMR after 28 days."}}, "note": "Several values for one entry are separate records, joined by “and”; a condition that tells them apart may be missing. Equal entries are not always repeated. Where two headings read alike, the source gives them in different places."}
{"smiles": "CO[C@@H]1[C@H](OC(=O)/C=C/C=C/C=C/C=C/C(=O)O)CC[C@]2(CO2)[C@H]1[C@@]1(C)O[C@@H]1CC=C(C)C", "note": "[fumagillin]", "values": [{"measurement": "leptin levels", "setting": "leptin", "value": "reduced"}, {"measurement": "ZGN-201 Conc. in Rat Plasma, individual animals", "setting": "[1]; male rats 1, 3, 4, 5, time point 0 hr", "value": "BQL (BQL: 1 ng/mL)"}, {"measurement": "ZGN-201 Conc. in Rat Plasma, individual animals", "setting": "[1]; male rats 1, 3, 4, 5, time point 0.083 hr", "value": "30286.5 ng/mL and 30532.1 ng/mL and 31057 ng/mL"}, {"measurement": "ZGN-201 Conc. in Rat Plasma, individual animals", "setting": "[1]; male rats 1, 3, 4, 5, time point 0.25 hr", "value": "9275.7 ng/mL and 9903.7 ng/mL and 13584.2 ng/mL"}, {"measurement": "ZGN-201 Conc. in Rat Plasma, individual animals", "setting": "[1]; male rats 1, 3, 4, 5, time point 0.5 hr", "value": "1104.6 ng/mL and 2295 ng/mL and 1109.8 ng/mL and 1225.1 ng/mL"}, {"measurement": "ZGN-201 Conc. in Rat Plasma, individual animals", "setting": "[1]; male rats 1, 3, 4, 5, time point 2 hr", "value": "95 ng/mL and 66.5 ng/mL and 79.3 ng/mL and 27.5 ng/mL"}, {"measurement": "ZGN-201 Conc. in Rat Plasma, individual animals", "setting": "[1]; male rats 1, 3, 4, 5, time point 8 hr", "value": "9 ng/mL and 6.9 ng/mL and 6.8 ng/mL"}, {"measurement": "absorption profile compared to absorption through the stomach", "setting": "[1]; rats", "value": "large absorption profile in the small intestine"}, {"measurement": "concentration at 0 hr", "setting": "[1]; male, Sprague-Dawley, rat, plasma, other: intraduodenal, 30 mg/kg, male rats 1, 3, 4, 5, time point 0 hr, read-out: ZGN-201 Conc. in Rat Plasma, individual animals", "value": 1, "unit": "ng/mL"}, {"measurement": "concentration at 0.083 hr", "setting": "[1]; male, Sprague-Dawley, rat, plasma, other: intraduodenal, 30 mg/kg, male rats 1, 3, 4, 5, time point 0.083 hr, read-out: ZGN-201 Conc. in Rat Plasma, individual animals", "value": 31400, "unit": "ng/mL"}, {"measurement": "concentration at 0.25 hr", "setting": "[1]; male, Sprague-Dawley, rat, plasma, other: intraduodenal, 30 mg/kg, male rats 1, 3, 4, 5, time point 0.25 hr, read-out: ZGN-201 Conc. in Rat Plasma, individual animals", "value": 7710, "unit": "ng/mL"}, {"measurement": "concentration at 8 hr", "setting": "[1]; male, Sprague-Dawley, rat, plasma, other: intraduodenal, 30 mg/kg, male rats 1, 3, 4, 5, time point 8 hr, read-out: ZGN-201 Conc. in Rat Plasma, individual animals", "value": 11.9, "unit": "ng/mL"}, {"measurement": "concentration at 0.083 hr", "setting": "[1]; male, Sprague-Dawley, rat, plasma, other: intraduodenal, 30 mg/kg, male rats, time point 0.083 hr, read-out: ZGN-201 Conc. in Rat Plasma, Mean", "value": 25100, "unit": "ng/mL"}, {"measurement": "concentration at 0.25 hr", "setting": "[1]; male, Sprague-Dawley, rat, plasma, other: intraduodenal, 30 mg/kg, male rats, time point 0.25 hr, read-out: ZGN-201 Conc. in Rat Plasma, Mean", "value": 9200, "unit": "ng/mL"}, {"measurement": "concentration at 0.5 hr", "setting": "[1]; male, Sprague-Dawley, rat, plasma, other: intraduodenal, 30 mg/kg, male rats, time point 0.5 hr, read-out: ZGN-201 Conc. in Rat Plasma, Mean", "value": 1730, "unit": "ng/mL"}, {"measurement": "concentration at 2 hr", "setting": "[1]; male, Sprague-Dawley, rat, plasma, other: intraduodenal, 30 mg/kg, male rats, time point 2 hr, read-out: ZGN-201 Conc. in Rat Plasma, Mean", "value": 506, "unit": "ng/mL"}, {"measurement": "concentration at 8 hr", "setting": "[1]; male, Sprague-Dawley, rat, plasma, other: intraduodenal, 30 mg/kg, male rats, time point 8 hr, read-out: ZGN-201 Conc. in Rat Plasma, Mean", "value": 20, "unit": "ng/mL"}, {"measurement": "concentration at 5 min", "setting": "[1]; male, Sprague-Dawley, rat, plasma, other: intraduodenal, 30 mg/kg, rats, 5 min. from administration (time point 0.083), read-out: amount of absorption by the small intestine", "value": 3000, "unit": "ng/mL"}, {"measurement": "blood disorders developed by patients", "setting": "[2]", "value": "thrombocytopenia, leukopenia, and neutropenia"}, {"measurement": "weight loss as a percentage of pre-study weight", "setting": "diet-induced obese mice [3]; 0.1 mg/kg/day oral gavage, end of study (14 days)", "value": 7, "unit": "%"}, {"measurement": "weight loss as a percentage of pre-study weight", "setting": "diet-induced obese mice [3]; 0.3 mg/kg/day oral gavage, end of study (14 days)", "value": 11, "unit": "%"}, {"measurement": "weight loss as a percentage of pre-study weight", "setting": "diet-induced obese mice [3]; 1 mg/kg/day oral gavage, end of study (14 days)", "value": 12, "unit": "%"}, {"measurement": "weight loss as a percentage of pre-study weight", "setting": "diet-induced obese mice [3]; 1 mg/kg/day subcutaneous injection, 14 days, end of study", "value": 7, "unit": "%"}, {"measurement": "non-effective dose", "setting": "diet-induced obese mice [3]; oral gavage, weight loss, not identified, concluded", "value": "below 0.1 mg/kg/day"}, {"measurement": "weight change", "setting": "lean mice; 1 mg/kg/day oral gavage", "value": "no weight change"}, {"measurement": "weight loss", "setting": "lean mice; 1 mg/kg/day subcutaneous", "value": "no weight loss"}, {"measurement": "weight loss", "setting": "diet-induced obese mice [4]; 0.3 mg/kg/day oral gavage", "value": "lost significant amounts of weight"}, {"measurement": "weight loss", "setting": "diet-induced obese mice [4]; 1.0 mg/kg/day oral gavage", "value": "losing a greater amount of weight"}, {"measurement": "loss of lean body mass (NMR)", "setting": "diet-induced obese mice [4]; 0.3 or 1.0 mg/kg/day oral gavage", "value": "without resulting in substantial loss of lean body mass"}]}
